Literature values in patent US20140127179A1, “Natural Killer Cell Formulations” (SCIENTIFIC FORMULATIONS, LLC, priority 2012, published 2014).
Read-outs that look alike come from different tables or passages of the source.

What was measured:
[1] = tested on: Human promyelocytic leukemia cells HL60; conditions: HL60 cultured with 30 nM for three years, injected into nu/nu mice
[2] = tested on: Natural Killer cells (NKC); parameters: key: +: Increased NK cell activity was shown; ±: mixed results; conditions: summary of literature studies
[3] = tested on: B16 melanoma cells
[4] = tested on: interferon-gamma-producing NK cell; conditions: nutritional intake of 10 mg
[5] = tested on: cancer cells; parameters: key: +: Direct Anti-cancer Activity was shown; conditions: direct anti-cancer activity, summary of literature studies
[6] = tested on: NK cell function; conditions: two weeks of high-dose treatment, cancer patients
[7] = tested on: NK cell activity; conditions: combinations of 1 mM thioproline and NAC, 5 μM Vitamin C and vitamin E; all ages studied
[8] = doses up to 5,000 mg
[9] = tested on: end-stage cancers
[10] = tested on: tumor cells; conditions: inhibited platelet aggregation
[11] = tested on: NK cell activity; conditions: 7 days after the drug injection
[12] = tested on: NK cell and ADCC activity; conditions: CLL patients, from 0.01 to 1 microgram/ml
[13] = tested on: lymphokine-activated killer (LAK) cell; conditions: PPS, MPS and LEN, the three combined; P<0.01
[14] = tested on: NK cell activity of peripheral mononuclear cells
[15] = tested on: 3T3-SV40 fibroblasts; conditions: for fibroblast sensitivity to lytic activity of NKC: in several hours, NAC 10 mM
[16] = tested on: metastases; conditions: NAC administered with haemin and IL-2
[17] = tested on: transformed and embryonic cells
[18] = 42 men, 300 μg of Se

**Q.** Which tumor growth [1] does the source give for `C=C1/C(=C\C=C2/CCC[C@]3(C)[C@@H]([C@H](C)CCCC(C)(C)O)CC[C@@H]23)C[C@@H](O)C[C@@H]1O` [1,25 D3, 1,25-dihydroxyvitamin D3] here?
**A.** reduced rate of tumor growth

**Q.** For `COc1cc(/C=C/C(=O)CC(=O)/C=C/c2ccc(O)c(OC)c2)ccc1O` [Curcumin], which “NKC Activity” value [2] is on record?
**A.** +

**Q.** Which “growth of B16 melanoma cells” value ([3]; mouse, in vivo) does the source give for `CC(C)=CCC[C@](C)(O)[C@H]1CC[C@]2(C)[C@@H]1[C@H](O)C[C@@H]1[C@@]3(C)CC[C@H](O[C@@H]4O[C@H](CO)[C@@H](O)[C@H](O)[C@H]4O)C(C)(C)[C@@H]3CC[C@]12C` [Ginsenoside Rh2] here?
**A.** inhibits

**Q.** What about the “NK cell activity in spleen cells” value ([3]; tumor-bearing nude mice) of the same molecule?
**A.** increases

**Q.** With `[Zn]` [Zinc] as the molecule, how does the “quantity of interferon-gamma-producing NK cell” value [4] read?
**A.** increases

**Q.** And the Anti-Cancer [5]?
**A.** +

**Q.** What about the “NKC Activity” value [2] of the same molecule?
**A.** +

**Q.** What does the source list for Vitamin E?
**A.** NK cell function [6]: enhanced; NK cell activity [7]: enhancement; Anti-Cancer [5]: +; NKC Activity [2]: +

**Q.** What does the source list for `O=C1O[C@H]([C@@H](O)CO)C(O)=C1O` [Vitamin C, Ascorbic acid]?
**A.** mutagenic lesions; negative effects on NK cell activity, apoptosis or cell cycle [8]: did not induce mutagenic lesions nor had negative effects; NKC function of survivors versus baseline ([9]; 16 survivors, p<0.01): significantly higher; patients still alive ([9]; as of a mean of 6 months): 16/20; increase of NK cell cytotoxicity [10]: 285%; NK cell activity [7]: enhancement; Anti-Cancer [5]: +; NKC Activity [2]: +

**Q.** What does the source list for Lentinan?
**A.** NK cell activity [11]: significantly enhanced; enhancement of NK cell and ADCC activity [12]: dose-related increase; reduction of the dose of rIL-2 needed to have the same LAK activity [13]: 50%; interferon level in the peripheral blood circulation ([14]; cancer patients, 12 h following administration): elevated; NK cell activity of peripheral mononuclear cells ([14]; cancer patients, in 48 h): enhanced; patients with increased NK cell activity of lymphocytes ([14]; n=11, i.v. 2 mg, on the following day): four; Anti-Cancer [5]: +; NKC Activity [2]: +

**Q.** Which “fibroblast sensitivity to lytic activity of NKC” value [15] does the source give for `O=C(O)CCCCC1CCSS1` (stereo not drawn) [ALA, Alpha-Lipoic Acid] here?
**A.** reduced significantly

**Q.** And the “NKC Activity” value [2]?
**A.** ±

**Q.** With `Oc1ccc(C=Cc2cc(O)cc(O)c2)cc1` [Resveratrol] as the molecule, how does the Anti-Cancer [5] read?
**A.** +

**Q.** What about the “NKC Activity” value [2] of the same molecule?
**A.** +

**Q.** For `O=C(O)[C@@H]1CSCN1` [thioproline], which NK cell activity [7] is on record?
**A.** enhancement

**Q.** For `O=c1c(-c2ccc(O)cc2)coc2cc(O)cc(O)c12` [Geinstein, Genistein], which “NKC Activity” value [2] is on record?
**A.** +

**Q.** With `C=C1CC[C@H](O)C/C1=C/C=C1\CCC[C@]2(C)[C@@H]([C@H](C)CCCC(C)C)CC[C@@H]12` [Vitamin D3] as the molecule, how does the Anti-Cancer [5] read?
**A.** +

**Q.** What about the “NKC Activity” value [2] of the same molecule?
**A.** +

**Q.** Which decrease in metastases [16] does the source give for `CC(=O)N[C@@H](CS)C(=O)O` [NAC, N-Acetyl-Cysteine] here?
**A.** 63%

**Q.** What about the “susceptibility of transformed and embryonic cells to NK cell activity” value ([17]; 10 mM) of the same molecule?
**A.** loss of susceptibility

**Q.** What about the “susceptibility of murine embryonic fibroblasts (MEFs) to NK cell activity” value ([17]; pretreated with 10 mM) of the same molecule?
**A.** lose their susceptibility

**Q.** What about the “response to NK cell activity after removal of the antioxidant” value ([15]; 18-20 h after NAC removal) of the same molecule?
**A.** resistance to NK cell activity

**Q.** What about the “sensitivity to lysis by NKC mouse splenocytes” value ([15]; 18-20 h cultivation, 10 mM) of the same molecule?
**A.** did not change their sensitivity

**Q.** And the “fibroblast sensitivity to lytic activity of NKC” value [15]?
**A.** did not change it

**Q.** What about the NK cell activity [7] of the same molecule?
**A.** enhancement

**Q.** What about the “NKC Activity” value [2] of the same molecule?
**A.** +

**Q.** For `[Se]` [Selenium], which “counts of NKC and T lymphocytes expressing both sub-units of IL2R” value [18] is on record?
**A.** increased counts

**Q.** And the Anti-Cancer [5]?
**A.** +

**Q.** And the “NKC Activity” value [2]?
**A.** +
